In data set [1] the target is Nucleic Acid. As to the kind of experiment: Binding affinity to fluorescein-labeled 20mer stem loop 3 HIV1 RNA of packaging element psi by titration method. It is filed as nucleic-acid assay, Human immunodeficiency virus 1.
Data set [2] concerns Nucleic Acid. As to the kind of experiment: Selectivity ratio of Kd for fluorescein-labeled HIV1 single-stranded RNA of packaging element psi to Kd for fluorescein-labeled 20mer stem loop 3 HIV1 RNA of packaging element psi. The following applies: Human immunodeficiency virus 1. It is filed as nucleic-acid assay.
Data set [3] deals with Nucleic Acid. As to the kind of experiment: Binding affinity to fluorescein-labeled HIV1 single-stranded RNA of packaging element psi by titration method. Type of data set: nucleic-acid assay, Human immunodeficiency virus 1.
In data set [4] the target is Nucleic Acid. As to the kind of experiment: Binding affinity to fluorescein-labeled HIV1 duplex RNA of packaging element psi by titration method. Type of data set: nucleic-acid assay, Human immunodeficiency virus 1.
For data set [5], the system named is Nucleic Acid. As to the kind of experiment: Selectivity ratio of Kd for fluorescein-labeled HIV1 duplex RNA of packaging element psi to Kd for fluorescein-labeled 20mer stem loop 3 HIV1 RNA of packaging element psi. Type of data set: nucleic-acid assay. As to conditions: Human immunodeficiency virus 1.
The subject of data set [6] is Nucleic Acid. As to the kind of experiment: Binding affinity to fluorescein-labeled stem loop 3 HIV1 duplex RNA of packaging element psi by titration method. Type of data set: nucleic-acid assay, Human immunodeficiency virus 1. As to conditions: for pKd: read-out: Kd.
Data set [7] addresses Nucleic Acid. As to the kind of experiment: Binding affinity to fluorescein-labeled 14mer stem loop 3 HIV1 RNA of packaging element psi by titration method. Type of data set: nucleic-acid assay, Human immunodeficiency virus 1.
Data set [8] is described as follows: Solubility in water. Type of data set: physicochemical. As to conditions: buffer.
Data set [9] in a line: Solubility in DMSO. It is filed as physicochemical.
Data set [10] concerns the target Nucleic Acid. As to the kind of experiment: Binding affinity to strong binding site of unlabeled stem loop 2 HIV1 RNA of packaging element psi by isothermal titration calorimetry. Type of data set: nucleic-acid assay, Human immunodeficiency virus 1. (ITC needs no label: the signal is the heat of the interaction.)
For data set [11], the system named is Nucleic Acid. As to the kind of experiment: Selectivity ratio of Kd for fluorescein-labeled stem loop 2 HIV1 RNA of packaging element psi to Kd for fluorescein-labeled 14mer stem loop 3 HIV1 RNA of packaging element psi. Type of data set: nucleic-acid assay. The following applies: Human immunodeficiency virus 1.
Data set [12] concerns Nucleic Acid. As to the kind of experiment: Selectivity ratio of Kd for fluorescein-labeled stem loop 4 HIV1 RNA of packaging element psi to Kd for fluorescein-labeled 14mer stem loop 3 HIV1 RNA of packaging element psi. Type of data set: nucleic-acid assay. As to conditions: Human immunodeficiency virus 1.
In data set [13] the target is Nucleic Acid. As to the kind of experiment: Binding affinity to fluorescein-labeled stem loop 2 HIV1 RNA of packaging element psi by titration method. It is filed as nucleic-acid assay, Human immunodeficiency virus 1.
Data set [14] has as its system Nucleic Acid. As to the kind of experiment: Stabilization of stem loop 3 HIV1 RNA of packaging element psi assessed as protection against RNase 1-mediated cleavage at 500 uM by footprinting method. It is filed as nucleic-acid assay. The following applies: Human immunodeficiency virus 1.
Data set [15] has as its target Nucleic Acid. As to the kind of experiment: Binding affinity to fluorescein-labeled stem loop 4 HIV1 RNA of packaging element psi by titration method. Type of data set: nucleic-acid assay, Human immunodeficiency virus 1.
The subject of data set [16] is Nucleic Acid. As to the kind of experiment: Stabilization of stem loop 3 HIV1 RNA of packaging element psi assessed as melting temperature by UV spectroscopy. Type of data set: nucleic-acid assay. As to conditions: Human immunodeficiency virus 1.
In data set [17] the target is Nucleic Acid. As to the kind of experiment: Binding affinity to weaker binding site of unlabeled stem loop 2 HIV1 RNA of packaging element psi by isothermal titration calorimetry. Type of data set: nucleic-acid assay, Human immunodeficiency virus 1.
Data set [18] deals with Nucleic Acid. As to the kind of experiment: Binding affinity to stem loop 3 HIV1 RNA of packaging element psi assessed as RNA intercalation at 55 to 110 uM by CD spectroscopy. Type of data set: nucleic-acid assay. As to conditions: Human immunodeficiency virus 1.
Data set [19] relates to Nucleic Acid. As to the kind of experiment: Selectivity ratio of Kd for fluorescein-labeled HIV1 single-stranded RNA of packaging element psi to Kd for fluorescein-labeled 14mer stem loop 3 HIV1 RNA of packaging element psi. Type of data set: nucleic-acid assay. As to conditions: Human immunodeficiency virus 1.
Data set [20] concerns Nucleic Acid. As to the kind of experiment: Selectivity ratio of Kd for fluorescein-labeled HIV1 duplex RNA of packaging element psi to Kd for fluorescein-labeled 14mer stem loop 3 HIV1 RNA of packaging element psi. Type of data set: nucleic-acid assay. The following applies: Human immunodeficiency virus 1.
For data set [21], the system named is Nucleic Acid. As to the kind of experiment: Selectivity ratio of Kd for HIV1 single-stranded RNA to Kd for 20mer stem loop 3 HIV1 RNA. It is filed as nucleic-acid assay. The following applies: Human immunodeficiency virus 1.
Data set [22] concerns Nucleic Acid. As to the kind of experiment: Binding affinity to fluorescein-labeled stem loop 3 HIV1 RNA of packaging element psi by titration method. Type of data set: nucleic-acid assay. The following applies: Human immunodeficiency virus 1.
Data set [23] deals with Nucleic Acid. As to the kind of experiment: Binding affinity to unlabeled 20mer stem loop 3 HIV1 RNA of packaging element psi by titration method. It is filed as nucleic-acid assay, Human immunodeficiency virus 1.
Data set [24] has as its target Nucleic Acid. As to the kind of experiment: Binding affinity to 2-aminopurine-labeled stem loop 4 HIV1 RNA of packaging element psi by titration method. It is filed as nucleic-acid assay, Human immunodeficiency virus 1.
The test system of data set [25] is Nucleic Acid. As to the kind of experiment: Binding affinity to fluorescein-labeled stem loop 3 HIV1 RNA of packaging element psi after 72 hrs by mass spectroscopy. As to conditions: Human immunodeficiency virus 1. It is filed as nucleic-acid assay.
Data set [26] relates to Nucleic Acid. As to the kind of experiment: Binding affinity to stem loop 3 HIV1 RNA of packaging element psi assessed as RNA intercalation at 55 to 220 uM by CD spectroscopy. Type of data set: nucleic-acid assay. As to conditions: Human immunodeficiency virus 1.

pKd: −log10 of the molar value. Activity calls are given as the source filed them. The rule behind the calls is not given here. A value given as a limit tells only on which side of the number the result lay.

From ChEMBL document CHEMBL1154238, “Identification of specific small molecule ligands for stem loop 3 ribonucleic acid of the packaging signal Psi of human immunodeficiency virus-1” (J Med Chem, 2009) come the findings set out here.

One may read the pKd as −log10 of the Kd, conventionally taken in molar units. Regarding `CCOC(=O)c1c2c(n3ccccc13)C(=O)c1ccccc1C2=O`, the pKd on Nucleic Acid [1] is 5.85; at Nucleic Acid [3], 5.64; at Nucleic Acid [4] it was 5.52. The Selectivity ratio with Nucleic Acid [2] and in the data set with Nucleic Acid [5] was 2 throughout. In the data set on Nucleic Acid [6], the Kd entry is reported as “Not Active”.

On Nucleic Acid [7], `C[N+]1(C)C2CC(OC(=O)C(CO)c3ccccc3)CC1C1OC12` (stereo unspecified) showed a pKd of 3.80.

In the case of `Cc1ccn2c(CCc3nnc4cc(C)ccn34)nnc2c1`, the solubility result in data set [8] and in [9] was “Insoluble” each time.

As to `Cc1cc(N2CCN(C)CC2)n2nc(-c3ccc(Cl)cc3)nc2n1`, the negative-log Kd (pKd) on Nucleic Acid [10] is 4.82; at Nucleic Acid [13] (read-out: Kd), 4.34; on Nucleic Acid [15], 4.15; at Nucleic Acid [3] it was 3.56; on Nucleic Acid [4], 4.16; at Nucleic Acid [7], 4.96. Also, the negative logarithm of the Kd (pKd) at Nucleic Acid [17] was 2.65; at Nucleic Acid [6] it was 4.24. For the same compound, the Selectivity ratio in the data set on Nucleic Acid [11] was found to be 4; with Nucleic Acid [12], 7; with Nucleic Acid [19], 25; in the data set with Nucleic Acid [20], 5. In the data set with Nucleic Acid [14], the result was Active. In the data set with Nucleic Acid [16], the Tm amounted to 78.2 °C. Moreover, the outcome with Nucleic Acid [18] was inactive.

The compound `O=C1Oc2ccccc2C(=O)/C1=C/N1C(=O)N/C(=C\c2ccccc2O)C1=O` had a pKd on Nucleic Acid [1] of 3.79.

As for `C[N+](C)(C)CCN[N+]1(C)CCCc2ccccc21` (stereo unspecified), the pKd is 5.82 on Nucleic Acid [1], 5.11 on Nucleic Acid [3], 5.21 at Nucleic Acid [4] and 4.85 at Nucleic Acid [6]. Also, the Selectivity ratio in the data set on Nucleic Acid [2] and in the data set with Nucleic Acid [5] was 4 each time.

For `COc1ccc2nc3cc(Cl)ccc3c(Nc3ccc(O)c(CN4CCN(C)CC4)c3)c2c1`, the Selectivity ratio in the data set on Nucleic Acid [21] turned out to be 4.4. Further, the values for the pKd at Nucleic Acid [1], at Nucleic Acid [3] and at Nucleic Acid [4] were 6.17, 5.52 and 6.06, respectively.

`C[N+]1(C)CCc2cc(O)c(O)cc2C1Cc1ccc(O)c(O)c1` (stereo unspecified) showed a pKd on Nucleic Acid [1] of 3.87.

Turning to `Cn1c(N)nc2c(nc(OCc3ccccc3)n2[C@@H]2O[C@H](CO)[C@@H](O)[C@@H]2O)c1=O`, in the data set on Nucleic Acid [22], the result was inactive.

In the case of `CN(C)c1ncnc2c1ncn2CCn1cnc2ncnc(N(C)C)c21`, the pKd on Nucleic Acid [23] was 4.49.

With `COC1=C(C)C(=O)c2c(c(COC(N)=O)c3n2CC2C3N2C)C1=O` (stereo unspecified), the pKd at Nucleic Acid [10] is 3.96; at Nucleic Acid [3], below 2.31; on Nucleic Acid [4] it was 3.46; on Nucleic Acid [24], 4.10; at Nucleic Acid [7], 4.01; on Nucleic Acid [17], 1.96. The Kd result in the data set with Nucleic Acid [13] is “Not Active”. Moreover, the result in the data set with Nucleic Acid [14], with Nucleic Acid [25] and with Nucleic Acid [26] was Active. In addition, the Tm with Nucleic Acid [16] worked out at 79.2 °C. Besides, the Selectivity ratio in the data set on Nucleic Acid [19] stood at 50; with Nucleic Acid [20] it was 3.5.
